Source: patent publication US10766928B2, “Targeted conformationally-constrained kinked endosomal disrupting peptides” (priority 2012, dated 2020)
In brackets after ≈: the same amount, converted by molar mass. Non-standard residues stand in square brackets, D forms with d. Residues, ends and D or L forms follow the SMILES beside them. *: point of attachment. Pentanoyl(5-NH-cholesteryl) = CC(C)CCC[C@@H](C)[C@H]1CC[C@H]2[C@@H]3CC=C4C[C@@H](NCCCCC(=O)*)CC[C@]4(C)[C@H]3CC[C@]12C; Cholesteryloxycarbonyl = CC(C)CCC[C@@H](C)[C@H]1CC[C@H]2[C@@H]3CC=C4C[C@@H](OC(=O)*)CC[C@]4(C)[C@H]3CC[C@]12C; PEG3 = NCCOCCOCCOCCC(=O)O; Pra = C#CC[C@H](N)C(=O)O; Aib = CC(C)(N)C(=O)O; Ahx = NCCCCCC(=O)O; βAla = NCCC(=O)O

Columns and labels:
[1] = test system: endosomes of Jurkat lymphocytes; assay: Endosome disruption in Jurkat lymphocytes: release of carboxyfluorescein from disulfide probe Compound 2, flow cytometry
Procedure: (§1) The effects of the compounds of the invention on human Juikat leukemia cells were evaluated using flow cytometry-based assays of potency, efficacy, and toxicity. […] Analysis of flow cytometry data by non-linear regression was used to determine IC50 values for potency with the efficacy expressed as a percentage. […] Dose-dependent effects on cellular viability after 48 h at 37° C. in culture were also measured by flow cytometry.
(§2) The # represents the compound number in accordance with Tables A, B, and C. Concentrations of compound stock solutions were determined by absorbance measurements at 280 nm. Efficacy was determined as % change in cellular fluorescence relative to the maximal response of Compound 1, defined as 100%. Potencies and efficacies in Jurkat lymphocytes were measured by flow cytometry after treatment of cells with the compounds listed and the fluorescent probe Compound 2 (2.5 μM) for 14 hours. Toxicity to this cell line was determined by flow cytometry analysis of light scattering and counterstaining with PI after treatment for 48 h at 37° C. in culture. […] N.D., not determined.
Cells were treated with fluorescent molecular probe Compound 2 (2.5 μM) and endosome disruptors for 14 hours at 37° C. Enhanced cellular fluorescence resulting from release of the pH-sensitive fluorophore Compound 3 into the cytoplasm was quantified by flow cytometry.
Natural amino acids are represented by single letter codes. Codes for non-standard elements are as follows: Ch1: (3β-Cholest-5-en-3-yl-ammonio)pentanoyl; Ch2: (Cholester-3-yl)oxy-βAla-βAla; X: ε-Ahx; U: Aib; PB: Pacific Blue fluorophore. O: 3-(2-(2-(2-aminoethoxy)ethoxy)ethoxy)propanyl.

Jurkat lymphocytes = conditions: 48 h
Procedure: as §1, §2

[2] = Thermodynamic solubility in PBS (pH 7.4); type: physicochemical; conditions: phosphate buffered saline, PBS pH 7.4, 24 hours at 22° C., ±S.D., read-out: Solubility (aq.)
Source text: Values in parentheses represent 95% confidence intervals. N.D., not determined.
Measurements represent duplicate or more replicates, with active peptides subjected to multiple replicates. ND: not determined. The peptide was non-toxic and soluble in cell culture medium at this concentration.

C#CC[C@H](NC(=O)[C@H](CCC(=O)O)NC(=O)[C@H](CCC(=O)O)NC(=O)CCNC(=O)CCNC(=O)O[C@H]1CC[C@@]2(C)C(=CC[C@H]3[C@@H]4CC[C@H]([C@H](C)CCCC(C)C)[C@@]4(C)CC[C@@H]32)C1)C(=O)NCCOCCOCCOCCC(=O)NCCOCCOCCOCCC(=O)NC(C)(C)C(=O)NC(C)(C)C(=O)NC(C)(C)C(=O)NC(C)(C)C(=O)N[C@@H](Cc1ccc(O)cc1)C(=O)N[C@@H](Cc1ccc(O)cc1)C(=O)N[C@@H](C)C(=O)N[C@@H](Cc1ccc(O)cc1)C(=O)N[C@@H](Cc1ccc(O)cc1)C(=O)N1CCC[C@H]1C(=O)N1CCC[C@H]1C(=O)N[C@H](C(=O)N[C@H](C(N)=O)C(C)C)C(C)C [Compound 38, R″ = BEEZOOUUUUYYAYYPPVV-CONH2] ({Cholesteryloxycarbonyl-βAla-βAla}-EE[Pra][PEG3][PEG3][Aib][Aib][Aib][Aib]YYAYYPPVV-NH2)
EC50 ([1]; 14 h): 0.04 µM
IC50 ([1]; 14 h): 0.04 µM
Selectivity for disruption of endosomes over toxicity to cells in culture ([1]; Jurkat, toxicity after 48 hours): greater than hundredfold
IC50 (Jurkat lymphocytes): 8 µM
solubility thermodynamic at 24 h ([2]; pH 7.4, Table 1): 1060 ± 19 µM (≈ 2950 µg/mL)

C#CC[C@H](NC(=O)CCNC(=O)CCNC(=O)O[C@H]1CC[C@@]2(C)C(=CC[C@H]3[C@@H]4CC[C@H]([C@H](C)CCCC(C)C)[C@@]4(C)CC[C@@H]32)C1)C(=O)NCCOCCOCCOCCC(=O)NCCOCCOCCOCCC(=O)NC(C)(C)C(=O)NC(C)(C)C(=O)NC(C)(C)C(=O)NC(C)(C)C(=O)N[C@@H](Cc1c[nH]c2ccccc12)C(=O)N[C@@H](Cc1c[nH]c2ccccc12)C(=O)N[C@@H](C)C(=O)N[C@@H](Cc1ccc(O)cc1)C(=O)N[C@@H](Cc1c[nH]c2ccccc12)C(=O)N1CCC[C@H]1C(=O)N1CCC[C@H]1C(=O)N[C@H](C(=O)N[C@@H](C)C(N)=O)C(C)C [Compound 33, R″ = BZOOUUUUWWAYWPPVA-CONH2] ({Cholesteryloxycarbonyl-βAla-βAla}-[Pra][PEG3][PEG3][Aib][Aib][Aib][Aib]WWAYWPPVA-NH2)
EC50 ([1]; 14 h): 0.13 µM
IC50 (Jurkat lymphocytes): > 100 µM
solubility at 24 h ([2]; Table 1): 2 µM (≈ 5.14 µg/mL)

CC(C)CCC[C@@H](C)[C@H]1CC[C@H]2[C@@H]3CC=C4C[C@@H](NCCCCC(=O)NCCC(=O)N[C@@H](CCC(=O)O)C(=O)N[C@@H](CCC(=O)O)C(=O)NCCCCCC(=O)NC(C)(C)C(=O)NC(C)(C)C(=O)NC(C)(C)C(=O)N[C@@H](Cc5c[nH]c6ccccc56)C(=O)N[C@@H](Cc5c[nH]c6ccccc56)C(=O)N[C@@H](C)C(=O)N[C@@H](Cc5c[nH]c6ccccc56)C(=O)N[C@@H](Cc5c[nH]c6ccccc56)C(=O)N5CCC[C@H]5C(=O)N5CCC[C@H]5C(=O)N[C@H](C(=O)N[C@@H](C)C(N)=O)C(C)C)CC[C@]4(C)[C@H]3CC[C@]12C [Compound 19, R = BEEXUUUWWAWWPPVA-CONH2] ({Pentanoyl(5-NH-cholesteryl)-βAla}-EE[Ahx][Aib][Aib][Aib]WWAWWPPVA-NH2)
EC50 ([1]; 14 h): 1 µM
IC50 (Jurkat lymphocytes): 20 µM

CC(C)CCC[C@@H](C)[C@H]1CC[C@H]2[C@@H]3CC=C4C[C@@H](NCCCCC(=O)NCCC(=O)N[C@@H](CCC(=O)O)C(=O)N[C@@H](CCC(=O)O)C(=O)NCCCCCC(=O)NC(C)(C)C(=O)NC(C)(C)C(=O)NC(C)(C)C(=O)N[C@@H](Cc5c[nH]c6ccccc56)C(=O)N[C@@H](Cc5c[nH]c6ccccc56)C(=O)N[C@@H](C)C(=O)N[C@@H](Cc5ccc(O)cc5)C(=O)N[C@@H](Cc5c[nH]c6ccccc56)C(=O)N5CCC[C@H]5C(=O)N5CCC[C@H]5C(=O)N[C@H](C(N)=O)C(C)C)CC[C@]4(C)[C@H]3CC[C@]12C [Compound 11, R = BEEXUUUWWAYWPPV-CONH2] ({Pentanoyl(5-NH-cholesteryl)-βAla}-EE[Ahx][Aib][Aib][Aib]WWAYWPPV-NH2)
EC50 ([1]; 14 h): 0.8 µM
IC50 (Jurkat lymphocytes): 15 µM

CC(C)CCC[C@@H](C)[C@H]1CC[C@H]2[C@@H]3CC=C4C[C@@H](NCCCCC(=O)NCCC(=O)N[C@@H](CCC(=O)O)C(=O)N[C@@H](CCC(=O)O)C(=O)NCCCCCC(=O)NCCCCCC(=O)NC(C)(C)C(=O)NC(C)(C)C(=O)NC(C)(C)C(=O)NC(C)(C)C(=O)N[C@@H](Cc5ccc(O)cc5)C(=O)N[C@@H](Cc5ccc(O)cc5)C(=O)N[C@@H](C)C(=O)N[C@@H](Cc5ccc(O)cc5)C(=O)N[C@@H](Cc5ccc(O)cc5)C(=O)N5CCC[C@H]5C(=O)N5CCC[C@H]5C(=O)N[C@H](C(=O)N[C@@H](C)C(N)=O)C(C)C)CC[C@]4(C)[C@H]3CC[C@]12C [Compound 23, R = BEEXXUUUUYYAYYPPVA-CONH2] ({Pentanoyl(5-NH-cholesteryl)-βAla}-EE[Ahx][Ahx][Aib][Aib][Aib][Aib]YYAYYPPVA-NH2)
EC50 ([1]; 14 h): 0.1 µM
IC50 (Jurkat lymphocytes): 4 µM

CC(C)CCC[C@@H](C)[C@H]1CC[C@H]2[C@@H]3CC=C4C[C@@H](NCCCCC(=O)NCCC(=O)N[C@@H](CCC(=O)O)C(=O)N[C@@H](CCC(=O)O)C(=O)NCCCCCC(=O)NC(C)(C)C(=O)NC(C)(C)C(=O)N[C@@H](Cc5c[nH]c6ccccc56)C(=O)N[C@@H](Cc5c[nH]c6ccccc56)C(=O)N[C@@H](C)C(=O)N[C@@H](Cc5ccc(O)cc5)C(=O)N[C@@H](Cc5c[nH]c6ccccc56)C(=O)N5CCC[C@H]5C(=O)N5CCC[C@H]5C(=O)N[C@H](C(=O)N[C@@H](C)C(N)=O)C(C)C)CC[C@]4(C)[C@H]3CC[C@]12C [Compound 10, R = BEEXUUWWAYWPPVA-CONH2] ({Pentanoyl(5-NH-cholesteryl)-βAla}-EE[Ahx][Aib][Aib]WWAYWPPVA-NH2)
EC50 ([1]; 14 h): 0.9 µM
IC50 (Jurkat lymphocytes): 15 µM

CC(C)CCC[C@@H](C)[C@H]1CC[C@H]2[C@@H]3CC=C4C[C@@H](NCCCCC(=O)NCCC(=O)N[C@@H](CCC(=O)O)C(=O)N[C@@H](CCC(=O)O)C(=O)NCCCCCC(=O)NCCCCCC(=O)NC(C)(C)C(=O)NC(C)(C)C(=O)NC(C)(C)C(=O)NC(C)(C)C(=O)N[C@@H](Cc5c[nH]c6ccccc56)C(=O)N[C@@H](Cc5c[nH]c6ccccc56)C(=O)N[C@@H](C)C(=O)N[C@@H](Cc5ccc(O)cc5)C(=O)N[C@@H](Cc5c[nH]c6ccccc56)C(=O)N5CCC[C@H]5C(=O)N5CCC[C@H]5C(=O)N[C@H](C(=O)N[C@@H](C)C(N)=O)C(C)C)CC[C@]4(C)[C@H]3CC[C@]12C [Compound 21, R = BEEXXUUUUWWAYWPPVA-CONH2] ({Pentanoyl(5-NH-cholesteryl)-βAla}-EE[Ahx][Ahx][Aib][Aib][Aib][Aib]WWAYWPPVA-NH2)
EC50 ([1]; 14 h): 0.1 µM
IC50 (Jurkat lymphocytes): 9 µM

CC(C)CCC[C@@H](C)[C@H]1CC[C@H]2[C@@H]3CC=C4C[C@@H](NCCCCC(=O)NCCC(=O)N[C@@H](CCC(=O)O)C(=O)N[C@@H](CCC(=O)O)C(=O)NCCCCCC(=O)NCCCCCC(=O)N[C@@H](C)C(=O)N[C@@H](C)C(=O)N[C@@H](C)C(=O)N[C@@H](Cc5c[nH]c6ccccc56)C(=O)N[C@@H](Cc5c[nH]c6ccccc56)C(=O)N[C@@H](C)C(=O)N[C@@H](Cc5ccc(O)cc5)C(=O)N[C@@H](Cc5c[nH]c6ccccc56)C(=O)N5CCC[C@H]5C(=O)N5CCC[C@H]5C(=O)N[C@H](C(=O)N[C@@H](C)C(N)=O)C(C)C)CC[C@]4(C)[C@H]3CC[C@]12C [Compound 8, R = BEEXXAAAWWAYWPPVA-CONH2] ({Pentanoyl(5-NH-cholesteryl)-βAla}-EE[Ahx][Ahx]AAAWWAYWPPVA-NH2)
EC50 ([1]; 14 h): 0.4 µM
IC50 (Jurkat lymphocytes): 9 µM
